Experimental data from patent US6649646B2, “Insecticidal and miticidal compositions” (priority 1996, dated 2003).

tested on: susceptible strain of spider mite; assay: LC50 against a susceptible strain of spider mite; assay type: in vivo; conditions: not given

Structure (SMILES) | LC50
CCOCn1c(-c2ccc(Cl)cc2)c(C#N)c(Br)c1C(F)(F)F [Chlorfenapyr, 4-Bromo-2-(4-chlorophenyl)-1-(ethoxymethyl)-5-(trifluoromethyl)pyrrole-3-carbonitrile] | about 5 ppm

tested on: Kanzawa spider mite (Tetranychus kanzawai kishida) which had acquired a strong resistance to chlorfenapyr; assay: Miticidal effect against female imagines of chlorfenapyr-resistant Kanzawa spider mite, leaf disk spray test; assay type: in vivo; conditions: LC50 resistant strain relative to susceptible strain
Description: For a T value equal to 100, an additive action is indicated.

Structure (SMILES) | resistance to chlorfenapyr of the resistant strain versus susceptible strain [fold]
CCOCn1c(-c2ccc(Cl)cc2)c(C#N)c(Br)c1C(F)(F)F [Chlorfenapyr, 4-Bromo-2-(4-chlorophenyl)-1-(ethoxymethyl)-5-(trifluoromethyl)pyrrole-3-carbonitrile] | ~300

same assay, conditions: in vivo

Structure (SMILES) | LC50 [ppm]
CCCSP(=S)(OCC)Oc1ccc(Cl)cc1Cl (stereo not drawn) [Prothiophos, O-2,4-Dichlorophenyl-O-ethyl-S-propylphosphorodithioate] | 260

same assay, conditions: single test compound; female imago, chlorfenapyr-resistant strain; mortality two days after spray treatment, 25±1° C.; probit analysis

Structure (SMILES) | LC50 [ppm]
COP(=S)(OC)Oc1ccc(C#N)cc1 [CYAP, O,O-Dimethyl-O-p-cyanophenylthiophosphate] | 3200
CCOCn1c(-c2ccc(Cl)cc2)c(C#N)c(Br)c1C(F)(F)F [Chlorfenapyr, 4-Bromo-2-(4-chlorophenyl)-1-(ethoxymethyl)-5-(trifluoromethyl)pyrrole-3-carbonitrile] | 1500
CCOP(=S)(OCC)Oc1nc(Cl)c(Cl)cc1Cl [Chlorpyrifos, O,O-Diethyl-O-3,5,6-trichloro-2-pyridylphosphorothioate] | 3200
COP(=S)(OC)Oc1nc(Cl)c(Cl)cc1Cl [Chlorpyrifosmethyl, O,O-Dimethyl-O-3,5,6-trichloro-2-pyridylphosphorothioate] | 790
CCOP(=S)(OCC)Oc1cc(C)nc(C(C)C)n1 [Diazinon, (2-isopropyl-4-methylpyrimidyl-6)-diethylthiophosphate] | 3200
CCOP(=S)(Oc1ccc([N+](=O)[O-])cc1)c1ccccc1 (stereo not drawn) [EPN, Ethyl p-nitrophenylthionobenzenephosphonate] | 3100
CCOP(=S)(OCC)SCSP(=S)(OCC)OCC [Ethion, O,O,O′,O′-Tetraethyl-S,S′-methylenebisphosphorodithioate] | 3100
CC(C)OP(=O)(OC(C)C)SCc1ccccc1 [IBP, O,O-Diisopropyl-S-benzylthiophosphate] | 1300
COP(=S)(OC)Oc1ccc([N+](=O)[O-])c(C)c1 [MEP, O,O-Dimethyl-O-(3-methyl-4-nitrophenyl)thiophosphate] | 3200
COP(=S)(OC)Oc1ccc(SC)c(C)c1 [MPP, O,O-Dimethyl-O-[3-methyl-4-(methylthio)phenyl]-thiophosphate] | 1100
CCOC(=O)CC(SP(=S)(OC)OC)C(=O)OCC (stereo not drawn) [Malathon, Dimethyldicarbethoxyethyldithiophosphate] | 3400
CCOC(=O)C(SP(=S)(OC)OC)c1ccccc1 (stereo not drawn) [PAP, Ethyl dimethyldithiophosphorylphenylacetate] | 2000
CCOP(=S)(OCC)SCn1c(=O)oc2cc(Cl)ccc21 [Phosalone, 3-Diethoxyphosphorylthiomethyl-6-chlorobenzoxazolone] | 350
CCOP(=S)(OCC)Oc1ccc(=O)n(-c2ccccc2)n1 [Pyridaphenthion, O,O-Diethyl-O-(3-oxo-2-phenyl-2H-pyridazin-6-yl) phosphorothioate] | 1900
CCCSP(=S)(OCC)Oc1ccc(SC)cc1 (stereo not drawn) [Sulprofos, O-Ethyl-O-4-methylthiophenyl-S-propyl-phosphorodithioate] | 320
